Read-outs that look alike come from different tables or passages of the source. One block for each compound: values may come before it.
What was measured:
[1] = target: T1, 3-hydroxy-3-methylglutaryl-coenzyme A reductase (Rattus norvegicus, UniProt P51639); conditions: from E.P. publication 0 024 348, cited from earlier work
T1 sequence (P51639 1-887): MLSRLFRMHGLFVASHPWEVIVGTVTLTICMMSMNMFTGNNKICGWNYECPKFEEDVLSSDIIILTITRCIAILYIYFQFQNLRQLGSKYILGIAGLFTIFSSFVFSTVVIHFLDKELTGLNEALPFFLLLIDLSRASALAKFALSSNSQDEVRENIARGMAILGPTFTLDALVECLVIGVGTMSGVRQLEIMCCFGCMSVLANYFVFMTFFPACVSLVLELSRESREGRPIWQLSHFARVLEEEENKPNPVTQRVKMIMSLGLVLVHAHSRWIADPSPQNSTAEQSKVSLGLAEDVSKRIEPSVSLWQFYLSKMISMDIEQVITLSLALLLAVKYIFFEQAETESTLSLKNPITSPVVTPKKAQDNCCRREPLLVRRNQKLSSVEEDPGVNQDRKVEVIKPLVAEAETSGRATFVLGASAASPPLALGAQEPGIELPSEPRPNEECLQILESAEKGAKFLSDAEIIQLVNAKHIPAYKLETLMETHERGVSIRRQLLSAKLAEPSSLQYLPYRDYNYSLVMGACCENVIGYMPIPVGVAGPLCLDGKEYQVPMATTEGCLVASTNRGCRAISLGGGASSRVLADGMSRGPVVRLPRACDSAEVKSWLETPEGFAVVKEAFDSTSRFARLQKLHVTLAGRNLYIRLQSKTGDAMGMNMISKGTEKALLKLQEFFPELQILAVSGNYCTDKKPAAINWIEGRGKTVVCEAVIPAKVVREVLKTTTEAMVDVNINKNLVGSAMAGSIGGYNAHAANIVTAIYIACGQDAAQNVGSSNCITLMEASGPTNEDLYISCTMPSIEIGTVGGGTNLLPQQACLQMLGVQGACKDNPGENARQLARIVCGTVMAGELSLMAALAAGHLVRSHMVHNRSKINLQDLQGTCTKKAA

[2] = target: T1, 3-hydroxy-3-methylglutaryl-coenzyme A reductase; assay: Method A: in vitro enzyme inhibition (method of Knauss et al.); type: biochemical

Compound: O=C1CC(O)CC(CCc2c(Cl)cc(Cl)cc2OCc2ccccc2)O1 (single isomer, unassigned; (+)) [6-[2-(2,4-dichloro-6-(phenylmethoxy)phenyl)ethyl]-3,4,5,6-tetrahydro-4-hydroxy-2H-pyran-2-one]
IC50 ([1]; method A, tested as the sodium salts of the corresponding dihydroxy acid forms): 68 nM

Compound: O=C1C[C@H](O)C[C@@H](/C=C/c2c(Cl)cc(Cl)cc2-c2ccc(F)cc2)O1 [(E)-6-[2-(3,5-dichloro-4'-fluoro[l,l'-biphenyl]-2-yl)ethenyl]-3,4,5,6-tetrahydro-4-hydroxy-2H-pyran-2-one]
inhibitory potency (relative, in words) ([1]; compared with the (+) trans enantiomer of the 2,4-dichloro-6-(phenylmethoxy)phenyl compound, tested as sodium salt of the dihydroxy acid): even more potent

inhibitory potency (relative, in words) ([2]; compared with the (+) trans 3,5-dichloro-4'-fluoro-biphenyl compound, tested as sodium salt of the dihydroxy acid): several times more potent
Compound: Cc1cc(C)c(/C=C/[C@@H]2C[C@@H](O)CC(=O)O2)c(-c2ccc(F)c(C)c2)c1 [III, (+)-(4R, 6S)-(E)-6-[2-(3,3',5-trimethyl-4'-fluoro-[1,1'-biphenyl]-2-yl)ethenyl]-3,4,5,6-tetrahydro-4-hydroxy-2H-pyran-2-one]
inhibition of cholesterol biosynthesis (in words) ([2]; compared with compactin, test not specified): surpassing the inhibitory activity of compactin

— patent EP0068038A1, “(+)-(4R,6S)-(E)-6-(2-(4'-fluoro-3,3',5-trimethyl-(1,1'-biphenyl)-2-yl)ethenyl)-3,4,5,6-tetrahydro-4-hydroxy-2H-pyran-2-one, a process for preparing and a pharmaceutical composition containing the same” (Merck & Co., Inc., priority 1981, dated 1983)
